Test results as given in patent publication US6737383B1, “Herbicidal oxadiazolidines” (priority 1999, dated 2004).

Assays:
sugar beet = assay: Test B pre/postemergence sugar beet; assay type: in vivo, Beta vulgaris
Summary of the method: (§1)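 Test chemicals in a non-phytotoxic solvent mixture with surfactant were sprayed preemergence onto planted seeds and postemergence onto plants 2 to 18 cm tall (1- to 4-leaf stage). After twelve to sixteen days in a greenhouse, injury was visually rated against untreated controls from 0 (no effect) to 10 (complete control).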

bedstraw = assay: Test B pre/postemergence bedstraw; assay type: in vivo, Galium aparine
Summary of the method: as §1

velvetleaf = assay: Test B pre/postemergence velvetleaf; assay type: in vivo, Abutilon theophrasti
Summary of the method: as §1

cocklebur = assay: Test B pre/postemergence cocklebur; assay type: in vivo, Xanthium strumarium
Summary of the method: as §1

blackgrass = assay: Test B pre/postemergence blackgrass; assay type: in vivo, Alopecurus myosuroides
Summary of the method: as §1

crabgrass = assay: Test B pre/postemergence crabgrass; assay type: in vivo, Digitaria sanguinalis
Summary of the method: as §1

purple nutsedge = assay: Test B pre/postemergence purple nutsedge; assay type: in vivo, Cyperus rotundus
Summary of the method: as §1

corn = assay: Test B pre/postemergence corn; assay type: in vivo, Zea mays
Summary of the method: as §1

giant foxtail = assay: Test B pre/postemergence giant foxtail; assay type: in vivo, Setaria faberii
Summary of the method: as §1

pigweed = assay: Test B pre/postemergence pigweed; assay type: in vivo, Amaranthus retroflexus
Summary of the method: as §1

rape = assay: Test B pre/postemergence rape; assay type: in vivo, Brassica napus
Summary of the method: as §1

soybean = assay: Test B pre/postemergence soybean; assay type: in vivo, Glycine max
Summary of the method: as §1

wheat = assay: Test B pre/postemergence wheat; assay type: in vivo, Triticum aestivum
Summary of the method: as §1

wild oat = assay: Test B pre/postemergence wild oat; assay type: in vivo, Avena fatua
Summary of the method: as §1

morningglory = assay: Test B pre/postemergence morningglory; assay type: in vivo, Ipomoea hederacea
Summary of the method: as §1

surinam grass = assay: Test B pre/postemergence surinam grass; assay type: in vivo, Brachiaria decumbens
Summary of the method: as §1

[1] = Postemergence, Rate 62 g/ha, scale 0 to 10, 0 is no effect, 10 is complete control
[2] = Postemergence, Rate 125 g/ha, scale of 0 to 10 where 0 is no effect and 10 is complete control
[3] = Preemergence, Rate 62 g/ha, scale of 0 to 10 where 0 is no effect and 10 is complete control
[4] = Preemergence, Rate 125 g/ha, scale of 0 to 10 where 0 is no effect and 10 is complete control
[5] = Preemergence, Rate 250 g/ha, scale 0 (no effect) to 10 (complete control)
[6] = Rate 500 g/ha, Postemergence, scale 0 to 10, 0 is no effect, 10 is complete control
[7] = Preemergence, Rate 500 g/ha, scale of 0 to 10 where 0 is no effect and 10 is complete control
[8] = Rate 250 g/ha, Postemergence, scale 0 to 10, 0 is no effect, 10 is complete control

CC(C)N(C(=O)n1oc(=O)n(CCCCCl)c1=O)c1ccc(F)cc1 [Compound 712]
Plant response rating, Sugarbeets (sugar beet; [1]): 1
Sugarbeets plant response rating (sugar beet; [2]): 3
Sugarbeets plant response rating (sugar beet; [3]): 0
Plant response rating, Sugarbeets (sugar beet; [4]): 4
Sugarbeets plant response rating (sugar beet; [5]): 7
Sugarbeets plant response rating (sugar beet; [6]): 6
Bedstraw plant response rating (bedstraw; [3]): 0
Plant response rating, Bedstraw (bedstraw; [4]): 0
Bedstraw plant response rating (bedstraw; [5]): 2
Plant response rating, Bedstraw (bedstraw; [7]): 5
Bedstraw plant response rating (bedstraw; [6]): 8
Plant response rating, Velvetleaf (velvetleaf; [1]): 0
Velvetleaf plant response rating (velvetleaf; [2]): 5
Velvetleaf plant response rating (velvetleaf; [3]): 0
Plant response rating, Velvetleaf (velvetleaf; [4]): 3
Velvetleaf plant response rating (velvetleaf; [5]): 3
Velvetleaf plant response rating (velvetleaf; [8]): 6
Velvetleaf plant response rating (velvetleaf; [6]): 6
Plant response rating, Cocklebur (cocklebur; [1]): 0
Cocklebur plant response rating (cocklebur; [2]): 0
Cocklebur plant response rating (cocklebur; [3]): 0
Plant response rating, Cocklebur (cocklebur; [4]): 0
Cocklebur plant response rating (cocklebur; [5]): 0
Plant response rating, Cocklebur (cocklebur; [7]): 0
Cocklebur plant response rating (cocklebur; [8]): 3
Cocklebur plant response rating (cocklebur; [6]): 3
Plant response rating, Blackgrass (blackgrass; [1]): 0
Blackgrass plant response rating (blackgrass; [2]): 0
Blackgrass plant response rating (blackgrass; [3]): 3
Plant response rating, Blackgrass (blackgrass; [4]): 6
Blackgrass plant response rating (blackgrass; [5]): 8
Plant response rating, Blackgrass (blackgrass; [7]): 9
Blackgrass plant response rating (blackgrass; [8]): 5
Blackgrass plant response rating (blackgrass; [6]): 6
Plant response rating, Crabgrass (crabgrass; [1]): 1
Crabgrass plant response rating (crabgrass; [2]): 4
Crabgrass plant response rating (crabgrass; [3]): 8
Plant response rating, Crabgrass (crabgrass; [4]): 9
Crabgrass plant response rating (crabgrass; [5]): 10
Crabgrass plant response rating (crabgrass; [8]): 9
Crabgrass plant response rating (crabgrass; [6]): 9
Plant response rating, Nutsedge (purple nutsedge; [1]): 0
Nutsedge plant response rating (purple nutsedge; [2]): 0
Nutsedge plant response rating (purple nutsedge; [3]): 0
Plant response rating, Nutsedge (purple nutsedge; [4]): 0
Nutsedge plant response rating (purple nutsedge; [5]): 0
Nutsedge plant response rating (purple nutsedge; [8]): 0
Nutsedge plant response rating (purple nutsedge; [6]): 0
Plant response rating, Corn (corn; [1]): 0
Corn plant response rating (corn; [2]): 0
Corn plant response rating (corn; [3]): 0
Plant response rating, Corn (corn; [4]): 0
Corn plant response rating (corn; [5]): 0
Corn plant response rating (corn; [8]): 0
Corn plant response rating (corn; [6]): 0
Plant response rating, Giant foxtail (giant foxtail; [1]): 3
Giant foxtail plant response rating (giant foxtail; [2]): 8
Giant foxtail plant response rating (giant foxtail; [3]): 10
Plant response rating, Giant foxtail (giant foxtail; [4]): 10
Giant foxtail plant response rating (giant foxtail; [5]): 10
Giant foxtail plant response rating (giant foxtail; [8]): 8
Giant foxtail plant response rating (giant foxtail; [6]): 9
Plant response rating, Redroot pigweed (pigweed; [1]): 3
Redroot pigweed plant response rating (pigweed; [3]): 6
Plant response rating, Redroot pigweed (pigweed; [4]): 8
Redroot pigweed plant response rating (pigweed; [5]): 8
Redroot pigweed plant response rating (pigweed; [8]): 6
Redroot pigweed plant response rating (pigweed; [6]): 8
Plant response rating, Rape (rape; [1]): 2
Rape plant response rating (rape; [2]): 3
Rape plant response rating (rape; [3]): 0
Plant response rating, Rape (rape; [4]): 2
Rape plant response rating (rape; [5]): 7
Rape plant response rating (rape; [8]): 4
Rape plant response rating (rape; [6]): 4
Plant response rating, Soybean (soybean; [1]): 2
Soybean plant response rating (soybean; [2]): 5
Soybean plant response rating (soybean; [3]): 0
Plant response rating, Soybean (soybean; [4]): 0
Soybean plant response rating (soybean; [5]): 0
Soybean plant response rating (soybean; [8]): 5
Soybean plant response rating (soybean; [6]): 5
Plant response rating, Wheat (wheat; [1]): 0
Wheat plant response rating (wheat; [2]): 0
Wheat plant response rating (wheat; [3]): 0
Plant response rating, Wheat (wheat; [4]): 0
Wheat plant response rating (wheat; [5]): 0
Wheat plant response rating (wheat; [8]): 0
Wheat plant response rating (wheat; [6]): 5
Plant response rating, Wild oats (wild oat; [1]): 0
Wild oats plant response rating (wild oat; [2]): 0
Wild oats plant response rating (wild oat; [3]): 0
Plant response rating, Wild oats (wild oat; [4]): 3
Wild oats plant response rating (wild oat; [5]): 3
Wild oats plant response rating (wild oat; [8]): 0
Wild oats plant response rating (wild oat; [6]): 3
Plant response rating, Morningglory (morningglory; [1]): 3
Morningglory plant response rating (morningglory; [2]): 4
Morningglory plant response rating (morningglory; [3]): 0
Plant response rating, Morningglory (morningglory; [4]): 0
Morningglory plant response rating (morningglory; [5]): 0
Morningglory plant response rating (morningglory; [8]): 10
Morningglory plant response rating (morningglory; [6]): 10
Plant response rating, B. signalgrass (surinam grass; [1]): 0
B. signalgrass plant response rating (surinam grass; [2]): 0
B. signalgrass plant response rating (surinam grass; [3]): 3
Plant response rating, B. signalgrass (surinam grass; [4]): 5
B. signalgrass plant response rating (surinam grass; [5]): 8
Plant response rating, B. signalgrass (surinam grass; [7]): 8
B. signalgrass plant response rating (surinam grass; [8]): 4
B. signalgrass plant response rating (surinam grass; [6]): 8
